In ChEMBL document CHEMBL5729772, “MYST family histone acetyltransferase inhibitors” (2023) one finds IC50 data, which are given here for five molecules.

pIC50: −log10 of the molar value. Some results are limits rather than exact numbers.

Experiment [1] deals with Histone acetyltransferase KAT5 (Homo sapiens, UniProt Q92993). Description: (§1) KAT-5 Enzyme Assay: Enzyme assay buffer was 50 mM Tris pH 8.0, 0.002% Tween20, 0.005% bovine skin gelatin, and 1 mM dithiothreitol (DTT). For determination of IC50values, compounds were serially diluted with 2% (v/v) DMSO in the final reaction, pre-incubating each dilution of each compound with 40 μL of assay buffer containing KAT-5 enzyme (9 nM final concentration). 10 μL of assay buffer containing 1 μM peptide substrate and 0.5 μM acetyl coenzyme A (final concentrations) was added. Reactions (50 μL total) were then carried out at 25° C. for 90 minutes. Reactions were terminated by the addition of 0.5% formic acid (final concentration), and a sample of each reaction was analyzed by SAMDI Tech, Inc. (Chicago, Ill.) using self-assembled monolayer desorption/ionization time-of-flight mass spectrometry (Mrksich, M. (2008) Mass spectrometry of self-assembled monolayers: a new tool for molecular surface science. ACS Nano 2, 7-18).

For experiment [2], the target named is Histone acetyltransferase KAT6A (Homo sapiens, UniProt Q92794). Described as §1, with “KAT-6A Enzyme” for “KAT-5 Enzyme”, “Assay: KAT-6A.” for “Assay:”, “containing KAT-6A” for “containing KAT-5”, “enzyme (12.5” for “enzyme (9”, “and 1” for “and 0.5”.
Experiment [3] deals with Histone acetyltransferase KAT7 (Homo sapiens, UniProt O95251). The description is as §1, with “KAT-7 Enzyme” for “KAT-5 Enzyme”, “containing KAT-7” for “containing KAT-5”, “enzyme (6” for “enzyme (9”, “and 2” for “and 0.5”, “for 120” for “for 90”.
Experiment [4] concerns the target T1, Histone acetyltransferase KAT8 (Homo sapiens, UniProt Q9H7Z6).
T1 sequence (Q9H7Z6 whole entry): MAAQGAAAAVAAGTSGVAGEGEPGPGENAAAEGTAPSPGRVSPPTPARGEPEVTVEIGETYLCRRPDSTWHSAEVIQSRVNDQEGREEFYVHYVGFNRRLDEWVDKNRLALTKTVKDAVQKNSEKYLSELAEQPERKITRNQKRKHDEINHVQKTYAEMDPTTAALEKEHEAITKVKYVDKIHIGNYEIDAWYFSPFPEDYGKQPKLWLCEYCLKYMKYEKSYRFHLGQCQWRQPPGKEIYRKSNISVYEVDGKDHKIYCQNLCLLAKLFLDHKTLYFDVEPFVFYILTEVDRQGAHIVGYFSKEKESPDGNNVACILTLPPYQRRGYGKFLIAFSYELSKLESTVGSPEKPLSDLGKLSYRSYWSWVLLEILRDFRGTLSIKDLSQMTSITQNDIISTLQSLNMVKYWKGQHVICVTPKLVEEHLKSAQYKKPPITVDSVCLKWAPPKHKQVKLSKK
Described as §1, with “KAT-8 Enzyme” for “KAT-5 Enzyme”, “containing KAT-8” for “containing KAT-5”, “enzyme (12.5” for “enzyme (9”, “and 5” for “and 0.5”.

Sequence of Histone acetyltransferase KAT7 (O95251 whole entry): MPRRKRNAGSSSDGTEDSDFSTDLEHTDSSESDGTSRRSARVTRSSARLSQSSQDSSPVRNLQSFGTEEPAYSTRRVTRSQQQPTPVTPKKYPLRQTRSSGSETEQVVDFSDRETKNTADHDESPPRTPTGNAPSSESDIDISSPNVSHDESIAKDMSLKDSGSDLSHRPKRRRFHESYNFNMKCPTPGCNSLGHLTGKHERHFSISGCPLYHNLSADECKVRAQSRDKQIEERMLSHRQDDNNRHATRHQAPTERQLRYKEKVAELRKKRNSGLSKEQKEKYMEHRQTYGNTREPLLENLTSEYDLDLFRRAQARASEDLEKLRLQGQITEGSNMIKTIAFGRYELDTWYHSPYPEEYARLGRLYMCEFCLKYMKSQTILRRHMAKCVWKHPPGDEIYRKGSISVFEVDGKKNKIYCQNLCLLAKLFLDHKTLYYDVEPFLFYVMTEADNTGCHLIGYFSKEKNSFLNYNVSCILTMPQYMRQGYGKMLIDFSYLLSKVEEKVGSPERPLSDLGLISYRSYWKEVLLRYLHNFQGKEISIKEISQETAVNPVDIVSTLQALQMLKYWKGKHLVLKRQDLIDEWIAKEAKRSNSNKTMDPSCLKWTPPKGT
Sequence of Histone acetyltransferase KAT6A (Q92794 whole entry): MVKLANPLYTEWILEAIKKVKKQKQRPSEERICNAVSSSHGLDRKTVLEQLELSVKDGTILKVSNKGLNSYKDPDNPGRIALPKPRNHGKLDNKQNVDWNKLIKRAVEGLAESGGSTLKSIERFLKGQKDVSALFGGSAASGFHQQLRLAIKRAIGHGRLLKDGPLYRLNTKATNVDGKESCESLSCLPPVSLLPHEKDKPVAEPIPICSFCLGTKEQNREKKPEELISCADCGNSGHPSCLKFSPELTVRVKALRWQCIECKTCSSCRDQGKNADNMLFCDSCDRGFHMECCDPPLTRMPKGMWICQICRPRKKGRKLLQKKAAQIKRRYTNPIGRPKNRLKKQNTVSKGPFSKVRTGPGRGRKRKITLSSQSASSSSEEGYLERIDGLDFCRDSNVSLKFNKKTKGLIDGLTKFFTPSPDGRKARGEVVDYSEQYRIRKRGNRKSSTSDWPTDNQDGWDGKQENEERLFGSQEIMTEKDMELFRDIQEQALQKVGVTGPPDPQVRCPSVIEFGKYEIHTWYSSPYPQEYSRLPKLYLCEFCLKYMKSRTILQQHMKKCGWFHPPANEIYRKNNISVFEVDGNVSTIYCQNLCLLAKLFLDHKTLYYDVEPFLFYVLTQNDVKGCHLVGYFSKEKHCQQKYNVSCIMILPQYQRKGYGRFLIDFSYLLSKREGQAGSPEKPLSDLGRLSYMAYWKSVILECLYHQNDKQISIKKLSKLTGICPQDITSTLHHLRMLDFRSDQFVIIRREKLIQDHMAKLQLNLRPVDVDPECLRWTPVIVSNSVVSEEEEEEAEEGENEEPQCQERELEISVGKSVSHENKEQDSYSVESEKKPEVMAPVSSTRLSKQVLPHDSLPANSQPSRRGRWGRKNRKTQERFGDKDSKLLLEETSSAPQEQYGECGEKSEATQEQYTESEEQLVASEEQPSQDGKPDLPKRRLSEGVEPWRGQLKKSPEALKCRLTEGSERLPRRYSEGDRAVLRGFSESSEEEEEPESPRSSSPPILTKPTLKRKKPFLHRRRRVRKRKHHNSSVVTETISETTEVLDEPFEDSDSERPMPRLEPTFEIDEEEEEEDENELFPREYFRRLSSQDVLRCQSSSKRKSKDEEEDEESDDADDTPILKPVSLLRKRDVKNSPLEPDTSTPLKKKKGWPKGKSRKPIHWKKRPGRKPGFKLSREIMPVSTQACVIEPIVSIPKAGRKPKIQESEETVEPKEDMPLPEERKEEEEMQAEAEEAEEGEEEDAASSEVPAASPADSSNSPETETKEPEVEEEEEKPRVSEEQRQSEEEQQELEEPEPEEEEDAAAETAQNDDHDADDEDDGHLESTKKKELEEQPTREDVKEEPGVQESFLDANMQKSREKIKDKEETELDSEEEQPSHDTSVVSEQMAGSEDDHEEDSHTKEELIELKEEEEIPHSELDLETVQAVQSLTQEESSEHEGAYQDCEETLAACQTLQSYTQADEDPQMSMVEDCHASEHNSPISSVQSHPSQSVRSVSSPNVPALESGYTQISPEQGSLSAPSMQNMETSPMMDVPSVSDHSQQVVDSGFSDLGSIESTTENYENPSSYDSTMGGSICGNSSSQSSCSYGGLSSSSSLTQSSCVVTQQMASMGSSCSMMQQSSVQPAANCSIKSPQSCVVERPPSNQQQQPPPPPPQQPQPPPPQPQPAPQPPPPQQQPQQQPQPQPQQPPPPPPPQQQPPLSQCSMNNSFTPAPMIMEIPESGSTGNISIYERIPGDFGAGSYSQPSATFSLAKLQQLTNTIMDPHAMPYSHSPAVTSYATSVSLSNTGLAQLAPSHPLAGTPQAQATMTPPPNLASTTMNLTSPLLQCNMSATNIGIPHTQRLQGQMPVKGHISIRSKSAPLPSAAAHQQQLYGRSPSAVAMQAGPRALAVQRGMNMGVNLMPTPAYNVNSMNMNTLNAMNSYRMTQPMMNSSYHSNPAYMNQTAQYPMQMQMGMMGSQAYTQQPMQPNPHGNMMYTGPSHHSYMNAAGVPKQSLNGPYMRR
Sequence of Histone acetyltransferase KAT5 (Q92993 whole entry): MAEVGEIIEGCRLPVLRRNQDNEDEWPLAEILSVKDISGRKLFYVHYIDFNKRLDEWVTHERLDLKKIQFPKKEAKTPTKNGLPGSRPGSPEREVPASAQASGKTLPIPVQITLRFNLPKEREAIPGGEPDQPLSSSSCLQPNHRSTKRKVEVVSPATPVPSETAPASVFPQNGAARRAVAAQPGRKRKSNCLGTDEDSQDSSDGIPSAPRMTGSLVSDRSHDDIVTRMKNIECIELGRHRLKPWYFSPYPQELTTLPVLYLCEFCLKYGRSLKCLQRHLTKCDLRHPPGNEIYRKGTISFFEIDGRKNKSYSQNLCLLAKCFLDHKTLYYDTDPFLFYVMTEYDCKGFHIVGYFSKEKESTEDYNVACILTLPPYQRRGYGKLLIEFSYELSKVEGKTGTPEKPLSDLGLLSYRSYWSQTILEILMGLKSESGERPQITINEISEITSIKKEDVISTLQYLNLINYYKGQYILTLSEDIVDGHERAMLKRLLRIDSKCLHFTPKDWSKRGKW

`COc1ccc(S(=O)(=O)NNC(=O)c2cc(-c3cn(C)cn3)cc(Cl)c2F)nc1`: the pIC50 in experiment [1], in experiment [2] and in experiment [3] was greater than 5.00 throughout. The IC50 entry in experiment [4] was “in the range around 30 µM”.

Turning to `COc1ccc(S(=O)(=O)NNC(=O)c2cc(-c3cn(C)cn3)cc(Cl)c2F)c(F)c1`, the negative logarithm of the IC50 (pIC50) in experiment [1], in experiment [2] and in experiment [3] was greater than 5.00 in each case. In addition, the IC50 entry in experiment [4] is “in the range around 30 µM”.

Consider `Cn1cnc(-c2cc(Cl)c(F)c(C(=O)NNS(=O)(=O)c3ccccc3F)c2)c1`, for which the pIC50 in experiment [1], in experiment [2] and in experiment [3] was greater than 5.00 each time. In addition, in experiment [4], the IC50 entry is “in the range around 30 µM”.

For `COc1ccc(S(=O)(=O)NNC(=O)c2cc(-c3cn(C)cn3)cc(Cl)c2F)cc1`, the negative-log IC50 (pIC50) in experiment [1], in experiment [2] and in experiment [3] was greater than 5.00 in each case. Further, in experiment [4], the IC50 entry was “in the range around 30 µM”.

For the molecule `CNc1cccc(S(=O)(=O)NNC(=O)c2cc(-c3cn(C)cn3)cc(Cl)c2F)c1`, the negative-log IC50 (pIC50) in experiment [1], in experiment [2] and in experiment [3] was greater than 5.00 each time. The IC50 result in experiment [4] is “in the range around 30 µM”.

The pIC50 is the IC50 on a negative log10 scale, so that one unit is a factor of ten. What is called IC50 is the midpoint of a concentration-inhibition curve. Read a high IC50 as a need for much substance.
